Measured values: ChEMBL document CHEMBL3872259, “Synthesis, characterization, and in vitro SAR evaluation of N,N'-bis(arylmethyl)-C2-alkyl substituted imidazolium salts” (Bioorg Med Chem Lett, 2017)

Legend:
[1] = Antiproliferative activity against human NCI-H522 cells assessed as cell growth at 10 uM measured after 48 hrs by sulforhodamine B assay relative to control; format: functional; settings: NCI-H522, 48 h, read-out: Activity
[2] = Antiproliferative activity against human NCI-H460 cells assessed as reduction in cell viability measured after 72 hrs by MTT assay; format: functional, cell-based; settings: NCI-H460, 72 h; for CC50: read-out: LC50 (the source's name)
[3] = Growth inhibition of human NCI-H522 cells measured after 48 hrs by sulforhodamine B assay; format: functional; settings: NCI-H522, 48 h
[4] = Growth inhibition of human NCI-H226 cells measured after 48 hrs by sulforhodamine B assay; format: functional; settings: NCI-H226, 48 h; for CC50: read-out: LC50 (the source's name)
[5] = Growth inhibition of human HOP62 cells measured after 48 hrs by sulforhodamine B assay; format: functional; settings: HOP-62, 48 h; for CC50: read-out: LC50 (the source's name)
[6] = Antiproliferative activity against human HOP92 cells assessed as cell growth at 10 uM measured after 48 hrs by sulforhodamine B assay relative to control; format: functional; settings: HOP-92, 48 h, read-out: Activity
[7] = Growth inhibition of human EKVX cells measured after 48 hrs by sulforhodamine B assay; format: functional; settings: for CC50: read-out: LC50 (the source's name)
[8] = Growth inhibition of human NCI-H23 cells measured after 48 hrs by sulforhodamine B assay; format: functional; settings: NCI-H23, 48 h; for CC50: read-out: LC50 (the source's name)
[9] = Antiproliferative activity against human NCI-H1975 cells assessed as reduction in cell viability measured after 72 hrs by MTT assay; format: functional, cell-based; settings: NCI-H1975, 72 h
[10] = Antiproliferative activity against human NCI-H23 cells assessed as cell growth at 10 uM measured after 48 hrs by sulforhodamine B assay relative to control; format: functional; settings: NCI-H23, 48 h, read-out: Activity
[11] = Antiproliferative activity against human A549/ATCC cells assessed as cell growth at 10 uM measured after 48 hrs by sulforhodamine B assay relative to control; format: functional; settings: A549, 48 h, read-out: Activity
[12] = Antiproliferative activity against human NCI-H460 cells assessed as cell growth at 10 uM measured after 48 hrs by sulforhodamine B assay relative to control; format: functional; settings: NCI-H460, 48 h, read-out: Activity
[13] = Antiproliferative activity against human EKVX cells assessed as cell growth at 10 uM measured after 48 hrs by sulforhodamine B assay relative to control; format: functional; settings: read-out: Activity
[14] = Growth inhibition of human NCI-H322M cells measured after 48 hrs by sulforhodamine B assay; format: functional; settings: for CC50: read-out: LC50 (the source's name)
[15] = Antiproliferative activity against human HOP62 cells assessed as cell growth at 10 uM measured after 48 hrs by sulforhodamine B assay relative to control; format: functional; settings: HOP-62, 48 h, read-out: Activity
[16] = Antiproliferative activity against human HCC827 cells assessed as reduction in cell viability measured after 72 hrs by MTT assay; format: functional, cell-based; settings: HCC827, 72 h
[17] = Antiproliferative activity against human NCI-H226 cells assessed as cell growth at 10 uM measured after 48 hrs by sulforhodamine B assay relative to control; format: functional; settings: NCI-H226, 48 h, read-out: Activity
[18] = Antiproliferative activity against human A549 cells assessed as reduction in cell viability measured after 72 hrs by MTT assay; format: functional, cell-based; settings: A549, 72 h
[19] = Antiproliferative activity against human NCI-H322M cells assessed as cell growth at 10 uM measured after 48 hrs by sulforhodamine B assay relative to control; format: functional; settings: read-out: Activity
[20] = Growth inhibition of human HOP92 cells measured after 48 hrs by sulforhodamine B assay; format: functional; settings: HOP-92, 48 h; for CC50: read-out: LC50 (the source's name)
[21] = Aqueous solubility of the compound; format: physicochemical; settings: buffer

c1ccc2cc(Cn3cc[n+](Cc4ccc5ccccc5c4)c3)ccc2c1
growth at 10 µM [1]: -11.7%
GI50 [2]: 1270 nM
IC50 [2]: 4000 nM
TGI [2]: 10.4 µM
CC50 [2]: 42 µM
GI50 [3]: 393 nM
LC50 (50% lethal concentration) [3]: 26.8 µM
TGI [3]: 3110 nM
GI50 [4]: 1720 nM
TGI [4]: 14.3 µM
CC50 [4]: 71.9 µM
GI50 [5]: 3260 nM
TGI [5]: 17 µM
CC50 [5]: 45.9 µM
growth at 10 µM [6]: -13.3%
GI50 [7]: 2510 nM
TGI [7]: 15.5 µM
CC50 [7]: 4.75 µM
GI50 [8]: 901 nM
TGI [8]: 10.1 µM
CC50 [8]: 39.4 µM
IC50 [9]: 6000 nM
growth at 10 µM [10]: 41.6%
growth at 10 µM [11]: 67.6%
growth at 10 µM [12]: 39.6%
growth at 10 µM [13]: 51.6%
GI50 [14]: 8400 nM
TGI [14]: 21.3 µM
CC50 [14]: 47.3 µM
growth at 10 µM [15]: 42.1%
IC50 [16]: 9 µM
growth at 10 µM [17]: 52.1%
GI50 [18]: 7970 nM
LC50 [18]: 55.3 µM
TGI [18]: 22.9 µM
growth at 10 µM [19]: 62.8%
GI50 [20]: 160 nM
TGI [20]: 1390 nM
CC50 [20]: 15.2 µM

[Br-].c1ccc(-c2n(Cc3ccc4ccccc4c3)cc[n+]2Cc2ccc3ccccc3c2)cc1
GI50 [2]: 1370 nM
IC50 [2]: 3000 nM
TGI [2]: 2.87 µM
GI50 [3]: 1070 nM
TGI [3]: 2580 nM
GI50 [4]: 1260 nM
TGI [4]: 2.97 µM
GI50 [5]: 1460 nM
TGI [5]: 3.23 µM
growth at 10 µM [6]: -69.7%
GI50 [7]: 1580 nM
TGI [7]: 3.43 µM
GI50 [8]: 775 nM
TGI [8]: 2.35 µM
CC50 [8]: 6.14 µM
IC50 [9]: 2000 nM
growth at 10 µM [10]: -38.7%
growth at 10 µM [11]: 12.5%
solubility [21]: < 0.5 mM
growth at 10 µM [12]: -78.4%
growth at 10 µM [13]: 3.5%
GI50 [14]: 1420 nM
TGI [14]: 2.82 µM
CC50 [14]: 5.61 µM
growth at 10 µM [15]: -44.8%
IC50 [16]: 2 µM
growth at 10 µM [17]: -9.03%
GI50 [18]: 1780 nM
IC50 [18]: 4 µM
TGI [18]: 3.52 µM
growth at 10 µM [19]: 8.84%
GI50 [20]: 602 nM
TGI [20]: 2280 nM

CCc1n(Cc2ccc3ccccc3n2)cc[n+]1Cc1ccc2ccccc2c1.[Br-]
growth at 10 µM [1]: -27.4%
GI50 [2]: 456 nM
IC50 [2]: 2000 nM
TGI [2]: 10.8 µM
CC50 [2]: 49.5 µM
GI50 [3]: 275 nM
LC50 (50% lethal concentration) [3]: 13.3 µM
TGI [3]: 986 nM
GI50 [4]: 1060 nM
TGI [4]: 4.87 µM
CC50 [4]: 39.4 µM
GI50 [5]: 1400 nM
TGI [5]: 7.02 µM
CC50 [5]: 32.1 µM
growth at 10 µM [6]: -20.1%
GI50 [7]: 442 nM
TGI [7]: 7.34 µM
CC50 [7]: 38.7 µM
GI50 [8]: 311 nM
TGI [8]: 3.23 µM
CC50 [8]: 37 µM
IC50 [9]: < 1000 nM
growth at 10 µM [10]: -4.2%
growth at 10 µM [11]: 37.3%
solubility [21]: 5 mM
growth at 10 µM [12]: 11.1%
growth at 10 µM [13]: 15.9%
GI50 [14]: 2860 nM
TGI [14]: 13.8 µM
CC50 [14]: 38.1 µM
growth at 10 µM [15]: 1.85%
IC50 [16]: 5 µM
growth at 10 µM [17]: 19.6%
GI50 [18]: 997 nM
IC50 [18]: 3 µM
LC50 [18]: 46.1 µM
TGI [18]: 14.1 µM
growth at 10 µM [19]: 34.8%
GI50 [20]: 184 nM
TGI [20]: 671 nM
CC50 [20]: 7.04 µM

CCCCc1n(Cc2ccc3ccccc3n2)cc[n+]1Cc1ccc2ccccc2c1.[Cl-]
IC50 [2]: 3000 nM
IC50 [9]: 2000 nM
solubility [21]: > 10 mM
IC50 [16]: 6 µM
IC50 [18]: 3 µM

Cc1n(Cc2ccc3ccccc3n2)cc[n+]1Cc1ccc2ccccc2n1.[Cl-]
growth at 10 µM [1]: 35.9%
IC50 [2]: 8000 nM
growth at 10 µM [6]: 74.5%
IC50 [9]: 2000 nM
growth at 10 µM [10]: 69.8%
growth at 10 µM [11]: 88.6%
solubility [21]: > 80 mM
growth at 10 µM [12]: 95%
growth at 10 µM [13]: 80.7%
growth at 10 µM [15]: 90.5%
IC50 [16]: 13 µM
growth at 10 µM [17]: 88.1%
IC50 [18]: 15 µM
growth at 10 µM [19]: 103%
